Measurements taken from article PMC4414309, “Target Modulation by a Kinase Inhibitor Engineered to Induce a Tandem Blockade of the Epidermal Growth Factor Receptor (EGFR) and c-Src: The Concept of Type III Combi-Targeting” (PLoS ONE, 2015).

Key:
[1] = LC-MS analysis of AL776 hydrolysis in plasma in vivo; set-up: species or system CD-1 mice
Experimental: CD-1 mice were divided into groups of three and treated with 80 mg/kg of AL776, injected intraperitoneally (i.p) or intravenously (i.v). Mice were sacrificed and their plasma was collected for further analysis after 0, 5, 15 and 30 min after drug treatment. Plasma samples were extracted using twice the volume of methanol and lysed at 13,000 rpm for 30 min at 4°C. The resulting supernatant from each sample was collected, filtered and evaporated to dryness before reconstituting in 100 μL of methanol. LC-MS analyses were performed on a Synapt G2-S instrument coupled with an Acquity UPLC Class I system both from Waters. Elution rate was set at 500 μL/min using an Eclipse XDB C8, 3.5 um, 2.1 x 100 mm chromatographic column from Agilent Technologies. The experiments were performed with the following eluents: 0.1% aqueous formic acid (eluent A) and methanol (eluent B). The initial mobile phase was 30% B, which was maintained for 0.2 min at the beginning of the run. The following gradient elution was subsequently applied: 30 to 50% B from 0.2 to 4 min; 50 to 80% B from 4 to 10 min; held at 80% B from 10 to 11 min. Thereafter, eluent B was decreased to 30% in 0.2 min and held constant for up to 15 min to allow the column to equilibrate. Each sample was diluted with methanol in order to avoid detector saturation and […] aliquots of the resulting solutions were injected. Analyses were performed with the electrospray interface in positive ion mode and mass spectra acquired from m/z 100 to 1200. For accurate mass determination, Leucine Enkephalin was used as lock mass. The MassLynx software was used for instrument control, data acquisition and data processing.

MDA-MB-231 cells = assay: Growth inhibition, SRB assay, MDA-MB-231; details: Homo sapiens, MDA-MB-231, 120 h, read-out: IC50 growth inhibition MDA-MB-231
Experimental: (§1) Growth inhibition was measured in cells using the sulforhodamine B (SRB) assay [48]. […] The plates were subsequently rinsed with 1% acetic acid, and allowed to dry overnight. […] The results were analyzed using GraphPad Prism 6.0 (GraphPadSoftware, Inc., San Diego, CA) and the sigmoidal dose response curve was used to determine IC50 values. Each experiment was carried out at least four times, in triplicate.

4T1 cells = assay: Growth inhibition, SRB assay, 4T1; details: Mus musculus, 4T1, 120 h, read-out: IC50 growth inhibition 4T1
Experimental: as §1

4T1 tumours = assay type: in vivo; details: 40 mg/kg i.v. once/day for 5 days
[2] = test system: NIH3T3 wild type and EGFR transfected cells; assay: Apoptosis by annexin V/PI flow cytometry; assay type: cell-based, mouse; details: 48h
Experimental: NIH3T3 cell lines (wild type and EGFR transfected) were plated in 6-well plates (500,000 cells/well) and allowed to grow overnight (37°C, 5% CO2). […] They were subsequently collected using trypsin (Wisent Inc., St-Bruno, Canada), centrifuged (2000 rpm, 5 min), rinsed with PBS and centrifuged again to obtain a cell pellet. The pellet was re-suspended in binding buffer (1X) and prior to being analyzed, annexin V-FITC and PI stains (eBioscience, San Diego, CA, USA) were added to the cells and incubated for 15 min in the dark at 4°C. Annexin V–FITC and PI binding were analyzed with a Becton Dickinson FACScan. Data were collected using logarithmic amplification of both the FL1 (FITC) and FL2 (PI) channels. Quadrant analysis of coordinate dot plots was done with CellQuestPro software. The experiment was carried out three times.

phospho-Src (Y416) = assay: Western blot of c-Src phosphorylation in cells; assay type: cell-based, mouse
Experimental: NIH3T3-Her14 and 4T1 cells grown in 10% FBS containing media were plated (~ 1 x 10^6 cells/well) in 6-well plates and allowed to attach overnight (37°C, 5% CO2). The cells were rinsed twice with PBS twenty-four hours later and starved overnight on addition of serum-free media. Thereafter, they were treated with different doses of AL776 for 2 hours, washed with PBS (twice) and stimulated with 50 ng/ml EGF for 30 min at 37°C. Cells were washed, detached by scraping in ice-cold PBS and collected by centrifugation for 15 min at 3000 rpm. Cell pellets were re-suspended in cold lysis buffer 50 mM Tris-HCl pH 7.5; 150 mM NaCl; 1% Nonidet P-40, 1 mM EDTA; 5 mM NaF; 1 mM Na3VO4; protease inhibitor tablet (Roche Biochemicals, Laval, Canada)]. Lysates were kept on ice for 1 h and collected by centrifugation at 13,000 rpm for 20 min at 4°C. The concentration of protein was determined using the Bio-Rad protein assay kit (Bio-Rad laboratories, Hercules, CA). Equal amounts of proteins were loaded, resolved on 10% SDS-PAGE and thereafter transferred to a polyvinylidenedifluoride (PVDF) membrane (Milipore, Bedford, MA). […]

[3] = test system: NIH3T3-Her14 (EGFR transfected) cells; assay: Absorption and hydrolysis kinetics of AL776 in cells (HPLC); assay type: in vitro ADME, mouse
Experimental: NIH3T3-Her14 cells were seeded in 6-well plates (1 x 10^6 cells/well) and grown in DMEM with 10% FBS for 24 h. Cells were then treated with 25 μM of AL776 and incubated at 37°C for 1h, 2h, 6h, 24h or 48h. The media was collected and extracted using twice the volume of methanol, on ice and centrifuged for 20 min at 13,000 rpm at 4°C. The resulting supernatant was filtered, evaporated to dryness and reconstituted with 100 μL of methanol. Cells were collected using trypsin and the cell pellet obtained was rinsed once with PBS and lysed with methanol (500 μL /tube) on ice for 1h. The lysate was centrifuged at 13,000 rpm for 20 min at 4°C and the resulting supernatant was collected into a separate tube and the remaining pellet was subjected to lysis two more times (250 μL /tube). The supernatant from each lysis step were pooled all together, filtered, evaporated to dryness and resuspended in 100 μL of methanol before further analyzing the samples. HPLC analysis was performed using a ACE 5 C18 5 μm column (150 mmx4.6 mm) under elution conditions of gradient 70–75% methanol:water for the first 5 min and isocratic methanol elution until 30 min, using a 0.75 mL/min flow rate. Analyses were performed using a Thermoquest P4000 equipped with a UV2000 detector and an AS300 Autosampler.

In the case of `Cc1nc(Nc2ncc(C(=O)Nc3c(C)cccc3Cl)s2)cc(N2CCN(CCOC(=O)CCC(=O)OCCN(C)Cc3ccc(C(=O)Nc4ccc5ncnc(Nc6cccc(Cl)c6)c5c4)cc3)CC2)n1` [AL776], the “Intact AL776 in plasma” value ([1]; 80 mg/kg i.p., early time points) is reported as “no intact AL776 found in plasma”, the “Intact AL776 in plasma” value ([1]; 80 mg/kg i.v., 30 min post-administration) is reported as “barely detectable levels” and the IC50 (MDA-MB-231 cells) is reported as 0.05 ± 0.004 µM. For the same molecule, the IC50 (4T1 cells) was 0.07 ± 0.01 µM, the “Tumour mass at end of study, control versus treated” value (4T1 tumours) was “no difference observed” and the “Effect on tumour growth (tumour volume)” value (4T1 tumours; monitored two weeks) was “unable to block tumour growth”. The “Level of apoptosis (early + late)” value ([2]; 1μM dose) was “higher level of apoptosis than gefitinib or dasatinib”, the “Lowest concentration inducing apoptosis” value [2] was 1 µM and the “Concentration of maximal inhibition of c-Src phosphorylation” value (phospho-Src (Y416); NIH3T3-Her14 and 4T1 cells, 2 h drug, EGF 50 ng/ml 30 min) was 1 µM. For the same molecule, the “Concentration of robust inhibition of c-Src phosphorylation in cells” value (phospho-Src (Y416); in cells) was 0.25 to 1 µM, the “Detection of AL776 in cells and extracellular medium” value ([3]; 25 μM, 24–48h) was “detectable inside the cells but not in the extracellular medium” and the “Intact AL776 found in the cells” value ([3]; 24h) was 50%.
